Laboratory results taken from PubChem BioAssay AID220 (DTP/NCI, 2004).
Where “and” joins values, the source holds several entries; their conditions need not be identical. Equal entries are not always repeated. Records with an inconclusive call do not appear.

Tested on: CD8F1 mice, subcutaneous mammary adenocarcinoma, T/C%
Assay: NCI In Vivo Anticancer Drug Screen. Data for tumor model Mammary Adenocarcinoma CD8F1 (subcutaneous) in CD8F1
Details: higher = larger tumour
Summary of the method: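 Transplantable tumors were established in mice, animals were dosed with compound or vehicle, and survival or tumor size was then measured in both groups. The treated result was divided by the control result.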

[1] = endpoint: median tumor weight (est.), dose: 12.5 mg/kg/injection, schedule: Q07DX005 (ip), vehicle: saline with Tween-80
[2] = endpoint: median tumor weight (est.), dose: 25.0 mg/kg/injection, schedule: Q07DX005 (ip), vehicle: saline with Tween-80

With CSc1cc(=O)n2c3ccccc3c3ccnc1c32 the T/C (endpoint: median tumor weight (est.), dose: 2.5 mg/kg/injection, schedule: Q07DX005 (ip), vehicle: saline with Tween-80) was 77 % of control, the T/C (endpoint: median tumor weight (est.), dose: 5.0 mg/kg/injection, schedule: Q07DX005 (ip), vehicle: saline with Tween-80) was 74 % of control and the T/C (endpoint: median tumor weight (est.), dose: 10.0 mg/kg/injection, schedule: Q07DX005 (ip), vehicle: saline with Tween-80) was 74 % of control. For the same molecule, the T/C (endpoint: median tumor weight (est.), dose: 20.0 mg/kg/injection, schedule: Q07DX005 (ip), vehicle: saline with Tween-80) was 65 % of control, the T/C (endpoint: median tumor weight (est.), dose: 40.0 mg/kg/injection, schedule: Q07DX005 (ip), vehicle: saline with Tween-80) was 119 % of control and the T/C (endpoint: median tumor weight (est.), dose: 80.0 mg/kg/injection, schedule: Q07DX005 (ip), vehicle: saline with Tween-80) was 59 % of control.
COc1cc2c(c(OC)c1OC)-c1ccc(OC)c(=O)cc1[C@@H](NC(C)=O)CC2 was tested, and the T/C (endpoint: median tumor weight (est.), dose: 0.75 mg/kg/injection, schedule: Q07DX005 (ip), vehicle: saline) was 82 % of control and 97 % of control, the T/C (endpoint: median tumor weight (est.), dose: 1.5 mg/kg/injection, schedule: Q07DX005 (ip), vehicle: saline) was 49 % of control and the T/C (endpoint: median tumor weight change, dose: 3.0 mg/kg/injection, schedule: Q01DX001 (ip), vehicle: suspension in saline) was 21 % of control. For the same molecule, the T/C (endpoint: median tumor weight change, dose: 6.25 mg/kg/injection, schedule: Q01DX001 (ip), vehicle: saline) was -47 % of control.
In the case of Oc1ccc(O)cc1, the T/C (endpoint: median tumor weight (est.), dose: 12.5 mg/kg/injection, schedule: Q07DX004 (ip), vehicle: saline) was 36 % of control, the T/C (endpoint: median tumor weight (est.), dose: 25.0 mg/kg/injection, schedule: Q07DX004 (ip), vehicle: saline) was 76 % of control and the T/C (endpoint: median tumor weight (est.), dose: 50.0 mg/kg/injection, schedule: Q07DX004 (ip), vehicle: saline) was 68 % of control. For the same molecule, the T/C (endpoint: median tumor weight (est.), dose: 100.0 mg/kg/injection, schedule: Q07DX004 (ip), vehicle: saline) was 57 % of control.
O=C(O)C1(NO)CCCCC1 was tested, and the T/C (endpoint: median tumor weight change, dose: 125.0 mg/kg/injection, schedule: Q01DX001 (ip), vehicle: Klucel (hydroxypropylcellulose) (HPC)) was 76 % of control, the T/C (endpoint: median tumor weight change, dose: 250.0 mg/kg/injection, schedule: Q01DX001 (ip), vehicle: Klucel (hydroxypropylcellulose) (HPC)) was 64 % of control and the T/C (endpoint: median tumor weight change, dose: 500.0 mg/kg/injection, schedule: Q01DX001 (ip), vehicle: Klucel (hydroxypropylcellulose) (HPC)) was 61 % of control. The T/C (endpoint: median tumor weight change, dose: 1000.0 mg/kg/injection, schedule: Q01DX001 (ip), vehicle: Klucel (hydroxypropylcellulose) (HPC)) was 76 % of control and the T/C (endpoint: median tumor weight change, dose: 2000.0 mg/kg/injection, schedule: Q01DX001 (ip), vehicle: Klucel (hydroxypropylcellulose) (HPC)) was 124 % of control.
With c1ccc2c(c1)nnn1c3cnccc3nc21 the T/C (endpoint: median tumor weight (est.), dose: 3.12 mg/kg/injection, schedule: Q07DX005 (ip), vehicle: saline with Tween-80) was 115 % of control, the T/C (endpoint: median tumor weight (est.), dose: 6.25 mg/kg/injection, schedule: Q07DX005 (ip), vehicle: saline with Tween-80) was 85 % of control and the T/C [1] was 105 % of control. The T/C [2] was 124 % of control.
With CCOC(=O)c1ccc(NC(=O)Nc2nccs2)cc1 the T/C [1] was 150 % of control, the T/C [2] was 46 % of control and the T/C (endpoint: median tumor weight (est.), dose: 50.0 mg/kg/injection, schedule: Q07DX005 (ip), vehicle: saline with Tween-80) was 60 % of control. For the same molecule, the T/C (endpoint: median tumor weight (est.), dose: 100.0 mg/kg/injection, schedule: Q07DX005 (ip), vehicle: saline with Tween-80) was 96 % of control, the T/C (endpoint: median tumor weight (est.), dose: 200.0 mg/kg/injection, schedule: Q07DX005 (ip), vehicle: saline with Tween-80) was 49 % of control and the T/C (endpoint: median tumor weight (est.), dose: 400.0 mg/kg/injection, schedule: Q07DX005 (ip), vehicle: saline with Tween-80) was 43 % of control.
With c1ccc2c(c1)-c1ccccc1C1NC21 (stereo not drawn) the T/C (endpoint: median tumor weight change, dose: 62.0 mg/kg/injection, schedule: Q01DX001 (ip), vehicle: saline with Tween-80) was 58 % of control.
With O=C(O)C1CSCN1 (stereo not drawn) the T/C (endpoint: median tumor weight change, dose: 12.5 mg/kg/injection, schedule: Q01DX001 (ip), vehicle: water) was 79 % of control, the T/C (endpoint: median tumor weight change, dose: 25.0 mg/kg/injection, schedule: Q01DX001 (ip), vehicle: water) was 111 % of control and the T/C (endpoint: median tumor weight change, dose: 50.0 mg/kg/injection, schedule: Q01DX001 (ip), vehicle: water) was 173 % of control. The T/C (endpoint: median tumor weight change, dose: 100.0 mg/kg/injection, schedule: Q01DX001 (ip), vehicle: water) was 90 % of control and the T/C (endpoint: median tumor weight change, dose: 200.0 mg/kg/injection, schedule: Q01DX001 (ip), vehicle: water) was 59 % of control.
In the case of O=C(O)c1ccc(SSc2ccc(C(=O)O)cn2)nc1, the T/C (endpoint: mean tumor weight, dose: 125.0 mg/kg/injection, schedule: Q07DX004 (ip), vehicle: saline) was 123 % of control, the T/C (endpoint: mean tumor weight, dose: 250.0 mg/kg/injection, schedule: Q07DX004 (ip), vehicle: saline) was 102 % of control and the T/C (endpoint: mean tumor weight, dose: 500.0 mg/kg/injection, schedule: Q07DX007 (ip), vehicle: saline) was 99 % of control.
